Columns and labels:
KLH-specific IgG = test: KLH-specific serum IgG (ELISA) after in vivo treatment of KLH-immunized mice; design: species or system C57BL/6 mice; conditions: for Serum IgG Level, Day 14, Group Mean: KLH-immunized mice, KLH + Vehicle group 223879
Protocol: (§1) Experimental animals: Female C57BL/6 mice were purchased from Envigo (Livermore, Calif.) to provide 8- to 10-week-old animals at the time of immunization. IgG measurements were performed using Innovative Research KLH IgG ELISA kit. Germinal center staining was performed on Dako autostainer using procedures well known in the art.
(§2) On Day 0, animals of Groups 2-6 (n=10 each) were immunized by intraperitoneal (IP) injection with 0.2 mL (0.5 mg) per mouse of KLH, a dose determined to be optimal for IP administration without adjuvant. Mice from Group 1 (n=5) were sham-immunized by IP injection of 0.2 mL PBS per mouse.
(§3) Starting on Day 0 (immediately post-immunization) and continuing through Day 13 (i.e., 14 days total), animals in Group 1, 2, and 4-6 were injected IP once daily (QD) with vehicle, 30 mg/kg Compound 1, 10 mg/kg Compound 1, or 100 mg/kg Compound 2; animals in Group 3 were injected IP once weekly (QW) with 50 mg/kg CP. All doses were administered by IP injection at 5 mL/kg at approximately the same time (±1 h) each day.
(§4) On Day 14 (at approximately 24 hours after the final dose administration), all animals were subjected to terminal cardiocentesis and euthanized. Following clotting and processing, the resulting serum samples were flash-frozen and stored at −80° C. pending analysis by enzyme-linked immunosorbent assay (ELISA). The spleen was harvested from each mouse and split into two. One half of each spleen was collected for immunohistochemical (IHC) analysis of germinal center activity using peanut agglutinin (PNA) staining. Single-cell suspensions were collected from the other spleen halves and stored in DMSO cell-freezing medium. These samples were to be used for optional FACS analysis. Remaining tissues were discarded without further evaluation.
(§5) Statistical analysis: Descriptive and inferential analyses were performed using the corresponding functions of Excel 2010 (Microsoft, Redmond, Wash.). Inferential analysis consisted of t-test comparisons (two-tailed, non-paired, heteroscedasticity assumed) between groups as indicated. Values of p<0.05 were considered statistically significant.
Results:KLH-specific IgG Levels. ELISA (performed as experimental replicates) was used to determine the levels of immunoglobulin G (IgG) specific for KLH in the terminal serum samples.

[1] = test system: germinal centers of the spleen; test: IHC with PNA staining of spleen as a measure of germinal center activity in KLH-immunized mice; assay type: in vivo, C57BL/6 mice; conditions: spleen Day 14; for Staining Intensity, Group Mean: PNA IHC, KLH + Vehicle group 2.4; for % PNA-Positive Staining of Germinal Center, Group Mean: KLH + Vehicle group 42%
Protocol: as §1, §2, §3, §4, §5
Immunohistochemical (IHC) Staining with Peanut Agglutinin (PNA) as a Measure of Germinal Center Activity. IHC with PNA staining was used to determine the levels of positive staining in the germinal centers of the spleen.

How did the “attenuation of immune response to KLH (serum IgG and PNA staining of splenic germinal centers)” value (KLH-specific IgG; 50 mg/kg, IP, once weekly over 14 days) turn out when `O=P1(N(CCCl)CCCl)NCCCO1` (stereo not drawn) [CP, cyclophosphamide, reference compound] was run?
Its value is “nominal but non-significant attenuation”.

What about the “Serum IgG Level, Day 14, Group Mean” value (KLH-specific IgG; 50 mpk IP once weekly over 14 days) of the same compound?
Its value is 161482 U/mL.

And the “Staining Intensity, Group Mean” value ([1]; 50 mpk IP once weekly)?
The value was 1.3.

And the “% PNA-Positive Staining of Germinal Center, Group Mean” value ([1]; 50 mpk IP once weekly)?
The value was 29%.

Which results are given for `CNC(=O)COc1cc2cc(Nc3nc(N4C[C@H](C)C[C@H](C)C4)ncc3Cl)ccc2n(C)c1=O` [Compound 1, 2-((6-((5-chloro-2-((3R,5S)-3,5-dimethylpiperidin-1-yl)pyrimidin-4-yl)amino)-1-methyl-2-oxo-1,2-dihydroquinolin-3-yl)oxy)-N-methylacetamide]?
Serum IgG Level, Day 14, Group Mean (KLH-specific IgG; 10 mpk IP once daily Days 0-13): 100997 U/mL; Serum IgG Level, Day 14, Group Mean (KLH-specific IgG; 30 mpk IP once daily Days 0-13): 103098 U/mL; Staining Intensity, Group Mean ([1]; 10 mpk IP once daily): 1.2; Staining Intensity, Group Mean ([1]; 30 mpk IP once daily): 1.5; % PNA-Positive Staining of Germinal Center, Group Mean ([1]; 10 mpk IP once daily): 12%; % PNA-Positive Staining of Germinal Center, Group Mean ([1]; 30 mpk IP once daily): 12%

With `CNC(=O)COc1cc2cc(Nc3nc(N4CCC(C(=O)N(C)C)CC4)ncc3Cl)cc(OC)c2n(C)c1=O` [Compound 2, 1-(5-chloro-4-((8-methoxy-1-methyl-3-(2-(methylamino)-2-oxoethoxy)-2-oxo-1,2-dihydroquinolin-6-yl)amino)pyrimidin-2-yl)-N,N-dimethylpiperidine-4-carboxamide] as the compound, how does the “attenuation of immune response to KLH (reduced IgG levels and germinal center activity)” value (KLH-specific IgG; 100 mg/kg, IP, once daily over 14 days) read?
The value was “highly significant attenuation”.

What about the “attenuation of immune response to KLH” value (KLH-specific IgG; 10 or 30 mg/kg, IP, once daily over 14 days, no observable dose response) of the same compound?
The value was “less significant attenuation”.

And the “Serum IgG Level, Day 14, Group Mean” value (KLH-specific IgG; 100 mpk IP once daily Days 0-13)?
Its value is 41503 U/mL.

And the “Staining Intensity, Group Mean” value ([1]; 100 mpk IP once daily)?
The value was 1.1.

And the “% PNA-Positive Staining of Germinal Center, Group Mean” value ([1]; 100 mpk IP once daily)?
Its value is 7%.

— patent US20210330672A1, “USE OF BCL6 INHIBITORS FOR TREATING AUTOIMMUNE DISEASES” (TEQLA THERAPEUTICS INC., priority 2018, published 2021)
